Reference: PMC10243163, “A frog‐derived antimicrobial peptide as a potential anti‐biofilm agent in combating Staphylococcus aureus skin infection” (Journal of Cellular and Molecular Medicine, 2023)
In brackets after ≈: the same amount, converted by molar mass. Read-outs that look alike come from different tables or passages of the source. Positions of bridges follow the written chain, without caps; N, C: chain ends. Residues, ends and D or L forms follow the SMILES beside them. No end group written: not given here.

What was measured:
[1] = tested on: Gram‐positive and Gram‐negative test bacteria; assay type: cell-based; conditions: geometric mean of MICs against the three Gram‐negative strains
[2] = tested on: Gram‐positive and Gram‐negative test bacteria; assay type: cell-based
Protocol: (§1) Antimicrobial assays were conducted using standard broth micro‐dilutions, as mentioned previously.[11] Gram‐positive bacteria S. aureus (ATCC 6538), Methicillin‐resistant S. aureus (MRSA; NCTC 12493), […] (NCTC 12697), Gram‐negative bacteria Escherichia coli (ATCC 8739), Klebsiella pneumoniae (ATCC 43816), Pseudomonas aeruginosa (ATCC 9027), Acinetobacter baumannii (ATCC BAA 747), and yeast, Candida albicans (ATCC 10231) were used in the test. The experiments were conducted in three independent runs.

[3] = tested on: S. aureus ATCC 6538; assay type: cell-based, Staphylococcus aureus
Protocol: as §1

[4] = tested on: C. albicans ATCC 10231; assay type: cell-based, Candida albicans
Protocol: as §1

[5] = tested on: K. pneumoniae ATCC 43816; assay type: cell-based, Klebsiella pneumoniae
Protocol: as §1

[6] = tested on: E. coli ATCC 8739; assay type: cell-based, Escherichia coli
Protocol: as §1

[7] = tested on: E. faecalis NCTC 12697; assay type: cell-based
[8] = tested on: P. aeruginosa ATCC 9027; assay type: cell-based, Pseudomonas aeruginosa
Protocol: as §1

[9] = tested on: horse erythrocytes; experiment: Haemolytic activity; assay type: cell-based; conditions: 128 μM peptide; horse erythrocytes 2% v/v, 37°C, 2 h; 0.1% Triton X‐100 positive control; absorbance 570 nm; three independent runs
Protocol: The haemolytic activity of peptides was conducted using horse erythrocytes (2%, v/v). Peptide solutions were mixed with washed horse erythrocyte suspension at 37°C for 2 h. Triton X‐100 (0.1%) was used as a positive control. The mixture was then centrifuged at 930 g for 5 min. The absorbance of the supernatants was detected at 570 nm. The haemolysis rate was calculated using the formula: Haemolysis%=Sample group−negative group/positive group−negative group×100%.
This experiment was performed in three independent runs.

[10] = tested on: MRSA NCTC 12493; assay type: cell-based, Methicillin‐resistant S. aureus
Protocol: as §1

[11] = tested on: S. aureus ATCC 6538; assay type: cell-based, Staphylococcus aureus; conditions: ATCC 6538, 24 h
Protocol: (§2) Peptide solutions were first mixed with bacterial cultures (5 × 10^5 CFU/mL) and incubated at 37°C for 24 h. The planktonic bacterial cells were gently removed by washing with PBS the next day, and methanol was utilised to fix the biofilm. Crystal violet (0.1% v/v), PBS and acetic acid (30%, v/v) were subsequently used to stain biofilm, remove remaining stains and re‐dissolve stains, respectively. The absorbance was determined at 595 nm. The experiments were conducted in three independent runs.

[12] = tested on: E. coli ATCC 8739; assay type: cell-based, Escherichia coli; conditions: ATCC 8739, 24 h
Protocol: as §2

[13] = tested on: MRSA NCTC 12493; assay type: cell-based, Methicillin‐resistant S. aureus; conditions: NCTC 12493, 24 h
Protocol: as §2

[14] = tested on: E. faecalis NCTC 12697; assay type: cell-based; conditions: NCTC 12697, 24 h
Protocol: as §2

[15] = tested on: P. aeruginosa ATCC 9027; assay type: cell-based, Pseudomonas aeruginosa; conditions: ATCC 9027, 24 h
Protocol: as §2

[16] = geometric mean of MICs against all test bacteria
[17] = geometric mean of MICs against the three Gram‐positive strains

Row | Compound | GM MIC, G− [1] | GM MIC, total bacteria [2, 16] | GM MIC, G+ [2, 17] | MBC [3] | MIC [3] | MBC [4] | MIC [4] | MBC [5] | MIC [5] | MBC [6] | MIC [6] | MBC [7] | MIC [7] | MBC [8] | MIC [8] | Haemolysis [9] | MBC [10] | MIC [10] | other results
1 | CC[C@H](C)[C@@H]1NC(=O)[C@H](C)NC(=O)[C@@H](NC(=O)[C@H](CC(C)C)NC(=O)[C@@H](NC(=O)[C@H](CCCCN)NC(=O)[C@@H]2CCCN2C(=O)[C@H](CC(C)C)NC(=O)[C@H](Cc2ccccc2)NC(=O)[C@H](CC(N)=O)NC(=O)[C@H](C)NC(=O)[C@H](C)NC(=O)[C@H](CC(C)C)NC(=O)CNC(=O)[C@H](C)NC(=O)[C@@H](NC(=O)[C@H](CC(C)C)NC(=O)[C@@H]2CCCN2C(=O)[C@@H](N)Cc2ccccc2)[C@@H](C)CC)[C@@H](C)CC)CSSC[C@@H](C(=O)O)NC(=O)[C@H](CCCCN)NC(=O)[C@H](CCCNC(=N)N)NC(=O)[C@H](C)NC1=O [OG9a] (H-FPLIAGLAANFLPKILCAIARKC-OH; disulfide 17-23) | 40.3 µM | 20.2 µM | 10.1 µM | 8 µM (≈ 19.5 µg/mL) | 4 µM (≈ 9.77 µg/mL) | > 128 µM | > 128 µM | 16 µM (≈ 39.1 µg/mL) | 16 µM (≈ 39.1 µg/mL) | 8 µM (≈ 19.5 µg/mL) | 8 µM (≈ 19.5 µg/mL) | 16 µM (≈ 39.1 µg/mL) | 16 µM (≈ 39.1 µg/mL) | > 128 µM | > 128 µM | 90% | 16 µM (≈ 39.1 µg/mL) | 16 µM (≈ 39.1 µg/mL) | 
2 | CC[C@H](C)[C@@H]1NC(=O)[C@H](C)NC(=O)[C@@H](NC(=O)[C@H](CC(C)C)NC(=O)[C@@H](NC(=O)[C@H](CCCCN)NC(=O)[C@@H]2CCCN2C(=O)[C@H](CC(C)C)NC(=O)[C@H](Cc2ccccc2)NC(=O)[C@H](CC(N)=O)NC(=O)[C@H](C)NC(=O)[C@H](CCCCN)NC(=O)[C@H](CC(C)C)NC(=O)CNC(=O)[C@H](C)NC(=O)[C@@H](NC(=O)[C@H](CC(C)C)NC(=O)[C@@H]2CCCN2C(=O)[C@@H](N)Cc2ccccc2)[C@@H](C)CC)[C@@H](C)CC)CSSC[C@@H](C(=O)O)NC(=O)[C@H](CCCCN)NC(=O)[C@H](CCCNC(=N)N)NC(=O)[C@H](C)NC1=O [OG9b] (H-FPLIAGLKANFLPKILCAIARKC-OH; disulfide 17-23) | 16 µM | 50.8 µM | 161.3 µM | 128 µM (≈ 320 µg/mL) | 64 µM (≈ 160 µg/mL) | > 128 µM | > 128 µM | 16 µM (≈ 40 µg/mL) | 16 µM (≈ 40 µg/mL) | 8 µM (≈ 20 µg/mL) | 8 µM (≈ 20 µg/mL) | > 128 µM | > 128 µM | 64 µM (≈ 160 µg/mL) | 32 µM (≈ 80 µg/mL) | 50% | > 128 µM | > 128 µM | 
3 | CC[C@H](C)[C@@H]1NC(=O)CNC(=O)[C@@H](NC(=O)[C@H](CC(C)C)NC(=O)[C@@H](NC(=O)[C@H](CCCCN)NC(=O)[C@@H]2CCCN2C(=O)[C@H](CC(C)C)NC(=O)[C@H](Cc2ccccc2)NC(=O)[C@H](CCCCN)NC(=O)[C@H](C)NC(=O)[C@H](C)NC(=O)[C@H](CC(C)C)NC(=O)[C@H](CCCNC(=N)N)NC(=O)[C@H](C)NC(=O)[C@@H](NC(=O)[C@H](CC(C)C)NC(=O)[C@@H]2CCCN2C(=O)[C@@H](N)Cc2ccccc2)[C@@H](C)CC)[C@@H](C)CC)CSSC[C@@H](C(=O)O)NC(=O)[C@H](CCCCN)NC(=O)[C@H](CC(N)=O)NC(=O)[C@H](C)NC1=O [OG9c] (H-FPLIARLAAKFLPKILCGIANKC-OH; disulfide 17-23) |  |  |  | 4 µM (≈ 10 µg/mL) | 4 µM (≈ 10 µg/mL) | 64 µM (≈ 160 µg/mL) | 64 µM (≈ 160 µg/mL) | 8 µM (≈ 20 µg/mL) | 8 µM (≈ 20 µg/mL) | 4 µM (≈ 10 µg/mL) | 4 µM (≈ 10 µg/mL) | 16 µM (≈ 40 µg/mL) | 16 µM (≈ 40 µg/mL) | 16 µM (≈ 40 µg/mL) | 16 µM (≈ 40 µg/mL) |  | 8 µM (≈ 20 µg/mL) | 8 µM (≈ 20 µg/mL) | GM MIC, G+ [2]: 8/8/8 μM; GM MIC, G− [2]: 8/8/8 μM; GM MIC, total bacteria [2]: 8/8/8 μM
4 | FPLIAGLAANFLPKIL [OG9‐De] |  |  |  | > 128 µM | > 128 µM | > 128 µM | > 128 µM | > 128 µM | > 128 µM | > 128 µM | > 128 µM | > 128 µM | > 128 µM | > 128 µM | > 128 µM | no apparent haemolysis | > 128 µM | > 128 µM | 
5 | FPLIAGLAANFLPKIL-NH2 [OG9‐De‐NH2] |  |  |  | > 128 µM | > 128 µM | > 128 µM | > 128 µM | > 128 µM | > 128 µM | > 128 µM | > 128 µM | > 128 µM | > 128 µM | > 128 µM | > 128 µM | no apparent haemolysis | > 128 µM | > 128 µM | 
6 | FPLIARLAAKFLPKIL [OG9c‐De] |  |  |  | 16 µM | 16 µM | 16 µM | 16 µM | 32 µM | 32 µM | 16 µM | 16 µM | 64 µM | 64 µM | 64 µM | 16 µM |  | 16 µM | 16 µM | GM MIC, G+ [2]: 25.4 µM; GM MIC, G− [2]: 20.2 µM; GM MIC, total bacteria [2]: 22.6 µM
7 | FPLIARLAAKFLPKIL-NH2 [OG9c‐De‐NH2] | 4 µM | 3.6 µM | 3.2 µM | 2/2 μM |  | 16 µM | 16 µM | 4 µM | 4 µM | 2 µM | 2 µM | 8 µM | 8 µM | 8 µM | 8 µM |  | 2 µM | 2 µM | MBIC [11]: 1 µM; MBIC [12]: 16 µM; MBIC [13]: 1 µM; MBIC [14]: 16 µM; MBIC [15]: 64 µM
